Measurements reported in US20240385195A1, “PEPTIDE FOR DETECTING CA125 AND USE THEREOF” (Ajou University Industry-Academic Cooperation Foundation, priority 2022, published 2024).
No end group written: not given here.

Columns and labels:
[1] = tested on: CA125 protein; assay: ELISA assay of binding affinity and specificity; parameters: species or system human; conditions: HRP-conjugated M13 antibody, TMB, FIG. 1
Procedure: (§1) In order to evaluate the binding affinity and specificity of the discovered SEQ ID NO: 1 peptide to the CA125 protein, and the binding affinity and specificity of the SEQ ID NO: 2 peptide to HE4, ELISA assay was performed according to the manufacturer's instructions using CA125 protein (R&D Systems Inc, MN, USA), HE4 protein (Sinobiological, PA, USA), HRP-conjugated M13 antibody (Sinobiological, PA, USA), and TMB solution (Thermo Scientific, MA, USA). In addition, to measure the binding affinity Kd (dissociation constant), the discovered peptides of SEQ ID NO: 1 and SEQ ID NO: 2 were synthesized (Biostem, Suwon, Korea), CA125 protein and HE4 protein were each fluorescently labeled using Protein Labeling kit RED-NHS 2nd Generation (NanoTemper Technologies, Munich, Germany). Afterwards, the binding affinity between peptide and protein was measured using Monolith NT.115 (NanoTemper Technologies, Munich, Germany) according to the manufacturer's instructions.

[2] = molecular target: T1, HE4 protein (Homo sapiens, UniProt Q14508); assay: ELISA assay of binding affinity and specificity; conditions: HRP-conjugated M13 antibody, TMB, FIG. 1
T1 construct: purchased Sinobiological, PA, USA
T1 sequence (Q14508 31-124): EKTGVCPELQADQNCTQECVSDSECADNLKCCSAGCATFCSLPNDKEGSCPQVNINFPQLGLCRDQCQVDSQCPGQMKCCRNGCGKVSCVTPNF
Procedure: as §1

specific binding to CA125 protein [1] | specific binding to HE4 protein [2] | Substance
specifically bound to the CA125 protein |  | HTHGAARVPDHR [SEQ ID NO: 1]
 | specifically bound to the HE4 protein | LGSKPIN [SEQ ID NO: 2, LGSKPIN]
